Measurements reported in ChEMBL document CHEMBL1139918, “Novel series of substituted biphenylmethyl urea derivatives as MCH-R1 antagonists for the treatment of obesity” (Bioorg Med Chem, 2007).

Legend:
[1] = molecular target: T1, Melanin-concentrating hormone receptor 1 (Homo sapiens, UniProt Q99705); settings: HEK293
Description: Antagonist activity at human MCH1 receptor expressed in HEK cells after 45 mins by [35S]GTP-gamma-S binding assay

[2] = molecular target: T1, Melanin-concentrating hormone receptor 1; assay: Displacement of [3H]SNAP from human MCH1 receptor expressed in HEK cells; type: cell-based, HEK293
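For pKb in this document: antagonism measured by [35S]GTPγS binding in HEK cells carrying human MCH1 receptor, 45 min incubation.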

T1 sequence (Q99705 whole entry): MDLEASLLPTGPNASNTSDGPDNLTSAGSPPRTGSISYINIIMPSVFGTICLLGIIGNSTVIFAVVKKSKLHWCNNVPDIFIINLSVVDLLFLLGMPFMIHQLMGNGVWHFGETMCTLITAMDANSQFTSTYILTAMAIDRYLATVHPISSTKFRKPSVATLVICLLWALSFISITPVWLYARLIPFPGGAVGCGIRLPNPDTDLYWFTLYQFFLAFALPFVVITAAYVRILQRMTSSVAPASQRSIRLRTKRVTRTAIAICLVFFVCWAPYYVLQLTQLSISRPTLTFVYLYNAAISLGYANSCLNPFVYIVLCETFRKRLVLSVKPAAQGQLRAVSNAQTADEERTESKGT

| Compound | pKb [1] | Ki ([2]; read-out: Ki) | Ki ([2]; read-out: Log Ki (converted)) |
| --- | --- | --- | --- |
| COc1ccccc1-c1ccc(CN(CCC2CCN(Cc3ccc(C)cc3)CC2)C(=O)NC(C)C)cc1 | < 5 |  |  |
| CCC(COC(C)=O)(COC(C)=O)NC(=O)N(CCC1CCN(Cc2ccc(C)cc2)CC1)Cc1ccc(-c2ccccc2OC)cc1 |  | 1200 nM |  |
| CC(=O)OCC(C)(C)NC(=O)N(CCC1CCN(Cc2ccc(C)cc2)CC1)Cc1ccc(-c2cccc(C#N)c2)cc1 | 6.63 | 254 nM |  |
| Cc1ccc(CN2CCC(NC(=O)NCc3ccc(-c4ccccc4)cc3)CC2)cc1 | 5.97 | 2640 nM | 2660 nM |
| CCC(COC(C)=O)(COC(C)=O)NC(=O)N(CCC1CCN(Cc2ccc(C)cc2)CC1)Cc1ccc(-c2ccc(F)cc2)cc1 | 6.71 | 214 nM |  |
| Cc1ccc(CN2CCC(NC(=O)N(CC(=O)C(C)(C)O)Cc3ccc(-c4cccc(C#N)c4)cc3)CC2)cc1 | 5.3 | 6380 nM |  |
| Cc1ccc(CN2CCC(NC(=O)NCc3ccc(-c4ccc(F)cc4)cc3)CC2)cc1 | 6.71 | 545 nM | 543 nM |
| CCC(CO)(CO)NC(=O)N(CCC1CCN(Cc2ccc(C)cc2)CC1)Cc1ccc(-c2cccc(C#N)c2)cc1 | 5.41 | 769 nM |  |
| COc1ccccc1-c1ccc(CNC(=O)NC2CCN(Cc3ccc(C)cc3)CC2)cc1 | 6.19 | 425 nM |  |
| Cc1ccc(CN2CCC(CCN(Cc3ccc(-c4ccc(F)cc4)cc3)C(=O)NC(C)C)CC2)cc1 | 6.42 | 314 nM | 313 nM |
| Cc1ccc(CN2CCC(NC(=O)N(CC(=O)C(C)(C)O)Cc3ccc(-c4ccc(F)cc4)cc3)CC2)cc1 | 5.34 | 5860 nM |  |
| CCC(CO)(CO)NC(=O)N(CCC1CCN(Cc2ccc(C)cc2)CC1)Cc1ccc(-c2ccc(F)cc2)cc1 | 6.54 | 149 nM |  |
| CCC(COC(C)=O)(COC(C)=O)NC(=O)N(CCC1CCN(Cc2ccc(C)cc2)CC1)Cc1ccc(-c2ccccc2)cc1 | 6.58 | 388 nM |  |
| CCC(CO)(CO)NC(=O)N(CCC1CCN(Cc2ccc(C)cc2)CC1)Cc1ccc(-c2ccccc2)cc1 | 6.83 | 173 nM |  |
| COc1ccc(-c2ccc(CNC(=O)NC3CCN(Cc4ccc(C)cc4)CC3)cc2)cc1 | 6.36 | 1460 nM |  |
| COc1ccc(-c2ccc(CN(CCC3CCN(Cc4ccc(C)cc4)CC3)C(=O)NC(C)(C)COC(C)=O)cc2)cc1 | 6.19 | 595 nM |  |
| COc1ccccc1-c1ccc(CN(CCC2CCN(Cc3ccc(C)cc3)CC2)C(=O)NC(C)(C)CO)cc1 | 6.88 | 251 nM |  |

| Compound | pKb [1] | Ki ([2]; read-out: Ki) | Ki ([2]; read-out: Log Ki (converted)) |
| --- | --- | --- | --- |
| COc1ccc(-c2ccc(CN(CC(=O)C(C)(C)O)C(=O)NC3CCN(Cc4ccc(C)cc4)CC3)cc2)cc1 | < 5 |  |  |
| Cc1ccc(CN2CCC(CCN(Cc3ccc(-c4ccccc4)cc3)C(=O)NC(C)C)CC2)cc1 |  | 258 nM |  |
| COc1ccc(-c2ccc(CN(CCC3CCN(Cc4ccc(C)cc4)CC3)C(=O)NC(C)(C)CO)cc2)cc1 | 7.06 | 204 nM |  |
| COc1ccccc1-c1ccc(CN(CCC2CCN(Cc3ccc(C)cc3)CC2)C(=O)NC(C)(C)COC(C)=O)cc1 | 6.14 | 215 nM |  |
| Cc1ccc(CN2CCC(CCN(Cc3ccc(-c4ccccc4)cc3)C(=O)NC(C)(C)CO)CC2)cc1 | 6.2 | 144 nM |  |
| Cc1ccc(CN2CCC(CCN(Cc3ccc(-c4cccc(C#N)c4)cc3)C(=O)NC(C)C)CC2)cc1 | 6 | 509 nM |  |
| CCC(COC(C)=O)(COC(C)=O)NC(=O)N(CCC1CCN(Cc2ccc(C)cc2)CC1)Cc1ccc(-c2cccc(C#N)c2)cc1 |  | 1080 nM |  |
| CCC(CO)(CO)NC(=O)N(CCC1CCN(Cc2ccc(C)cc2)CC1)Cc1ccc(-c2ccc(OC)cc2)cc1 | 6.93 | 143 nM |  |
| Cc1ccc(CN2CCC(CCN(Cc3ccc(-c4ccc(F)cc4)cc3)C(=O)NC(C)(C)CO)CC2)cc1 | 7.38 | 96.6 nM |  |
| Cc1ccc(CN2CCC(NC(=O)NCc3ccc(-c4cccc(C#N)c4)cc3)CC2)cc1 | 6.38 | 186 nM |  |
| Cc1ccc(CN2CCC(CCN(Cc3ccc(-c4cccc(C#N)c4)cc3)C(=O)NC(C)(C)CO)CC2)cc1 | 7.08 | 43 nM |  |
| COc1ccc(-c2ccc(CN(CCC3CCN(Cc4ccc(C)cc4)CC3)C(=O)NC(C)C)cc2)cc1 | 6.33 | 273 nM |  |
| CCC(COC(C)=O)(COC(C)=O)NC(=O)N(CCC1CCN(Cc2ccc(C)cc2)CC1)Cc1ccc(-c2ccc(OC)cc2)cc1 | 6.86 | 170 nM |  |
| CC(=O)OCC(C)(C)NC(=O)N(CCC1CCN(Cc2ccc(C)cc2)CC1)Cc1ccc(-c2ccccc2)cc1 | 6.43 | 947 nM |  |
| COc1ccccc1-c1ccc(CN(CC(=O)C(C)(C)O)C(=O)NC2CCN(Cc3ccc(C)cc3)CC2)cc1 | 5.43 | 6050 nM |  |
| CC(=O)OCC(C)(C)NC(=O)N(CCC1CCN(Cc2ccc(C)cc2)CC1)Cc1ccc(-c2ccc(F)cc2)cc1 | 6.39 | 421 nM |  |
| CCC(CO)(CO)NC(=O)N(CCC1CCN(Cc2ccc(C)cc2)CC1)Cc1ccc(-c2ccccc2OC)cc1 | 6.65 | 167 nM |  |
